Data on three compounds can be found in PubChem BioAssay (NCI).

Among the test systems are CAKI-1 renal; RXF 393 renal; NCI-H23 lung; UACC-62 melanoma; NCI/ADR-RES ovarian; HS 578T breast; SR leukemia; EKVX NSCLC; NCI-H226 lung; KM12 colon.
Holding throughout (assay): NCI anticancer screen, dose series, 48 h

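Dose response: 5 concentrations. Exposure: 48 h. Format: 96-well plates. Endpoint: linear interpolation; highest concentration if not reached. GI50 = concentration required for 50% inhibition of growth. TGI: concentration producing complete growth inhibition.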

As to `COC(=O)/C=C/c1cc(OC(C)=O)c2c(c1)C(C(=O)OC)C(c1ccc(OC(C)=O)c(OC(C)=O)c1)O2` (stereo not given), the GI50 in the experiment on CAKI-1 renal was 0.278 µM; with RXF 393 renal, 0.167 µM; in the experiment on NCI-H23 lung, 0.171 µM; with UACC-62 melanoma it was 0.298 µM; in the experiment with NCI/ADR-RES ovarian, 0.098 µM; with HS 578T breast, 0.0521 µM. For the same compound, the GI50 in the experiment on SR leukemia is 0.0303 µM; in the experiment with EKVX NSCLC, 2.28 µM; in the experiment with NCI-H226 lung, 3.68 µM; in the experiment with KM12 colon, 0.334 µM. For the same compound, the TGI in the experiment on CAKI-1 renal was 94 µM; with RXF 393 renal, 55.2 µM; with NCI-H23 lung it was more than 100 µM; in the experiment with UACC-62 melanoma it was 21.8 µM; in the experiment on NCI/ADR-RES ovarian, more than 100 µM; in the experiment with HS 578T breast, 68.2 µM. Further, the TGI is 30.4 µM in the experiment with SR leukemia, more than 86 µM with EKVX NSCLC, 23.2 µM in the experiment with NCI-H226 lung and 32.1 µM with KM12 colon.

Turning to `Cc1cccc(NC2=C(Cl)C(=O)c3nc(C)ccc3C2=O)c1`, the GI50 was 1.06 µM in the experiment on CAKI-1 renal; 1.46 µM in the experiment on RXF 393 renal; 0.512 µM in the experiment on NCI-H23 lung; 1.13 µM in the experiment on UACC-62 melanoma; 1.58 µM in the experiment with NCI/ADR-RES ovarian; 1.68 µM in the experiment on HS 578T breast. For the same compound, the GI50 in the experiment on SR leukemia was 1.22 µM; in the experiment with EKVX NSCLC, 1.47 µM; with NCI-H226 lung it was 1.1 µM; in the experiment with KM12 colon it was 2.67 µM. The TGI in the experiment on CAKI-1 renal is 2.26 µM; in the experiment with RXF 393 renal it was 2.84 µM; with NCI-H23 lung it was 2.13 µM; in the experiment with UACC-62 melanoma, 2.49 µM; in the experiment with NCI/ADR-RES ovarian it was 4.14 µM; in the experiment with HS 578T breast it was 4.58 µM. The TGI was more than 100 µM in the experiment on SR leukemia, 2.8 µM in the experiment on EKVX NSCLC, 2.78 µM in the experiment on NCI-H226 lung and 10.8 µM in the experiment with KM12 colon.

On to `C[C@H](CCOc1cccc(CC(=O)O)c1)N(Cc1cccc(C(F)(F)F)c1Cl)CC(c1ccccc1)c1ccccc1`, for which the GI50 in the experiment on CAKI-1 renal is 5.79 µM; in the experiment on RXF 393 renal, 4.18 µM; with NCI-H23 lung it was 4.5 µM; in the experiment with UACC-62 melanoma it was 2.72 µM; with NCI/ADR-RES ovarian it was 6.97 µM; with HS 578T breast, 3.79 µM. Also, the GI50 was 5.51 µM in the experiment on SR leukemia, 4.04 µM with EKVX NSCLC, 4.49 µM in the experiment with NCI-H226 lung and 4.1 µM in the experiment on KM12 colon. Moreover, the TGI turned out to be 18.2 µM in the experiment with CAKI-1 renal; 16.2 µM in the experiment with RXF 393 renal; 19.2 µM in the experiment with NCI-H23 lung; 8.44 µM in the experiment on UACC-62 melanoma; 21.3 µM in the experiment with NCI/ADR-RES ovarian; 20.7 µM in the experiment with HS 578T breast. Also, the TGI was found to be 51.6 µM in the experiment on SR leukemia, 19.1 µM in the experiment on EKVX NSCLC, 21.5 µM in the experiment with NCI-H226 lung and 15.1 µM in the experiment on KM12 colon.
